Reference: US10722514B2 (FLX Bio, Inc., priority 2017, dated 2020)
Counter-ions that a name gives are not always drawn.

molecular target: T1, recombinant full-length USP7 (Homo sapiens, UniProt Q93009); assay: USP7-mediated ubiquitin-rhodamine cleavage assay; format: biochemical; conditions: recombinant full-length USP7 62 pM; ubiquitin-rhodamine 100 nM; 30-minute incubation with compound, 1 hour reaction at room temperature; read-out: Potency: USP7 IC50
T1 construct: A 25 μl reaction volume containing recombinant full-length USP7 (62 pM)
Summary of the method: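 Enzyme 62 pM; HEPES pH 7.3/150 mM NaCl/1 mM TCEP/125 μg/ml BSA; 1% DMSO; 30 min cpd preinc RT; Ub-rhodamine 100 nM, 1 h RT, dark; acetic acid stop; fluorescence; IC50 4-param fit.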

T1 sequence (Q93009 whole entry): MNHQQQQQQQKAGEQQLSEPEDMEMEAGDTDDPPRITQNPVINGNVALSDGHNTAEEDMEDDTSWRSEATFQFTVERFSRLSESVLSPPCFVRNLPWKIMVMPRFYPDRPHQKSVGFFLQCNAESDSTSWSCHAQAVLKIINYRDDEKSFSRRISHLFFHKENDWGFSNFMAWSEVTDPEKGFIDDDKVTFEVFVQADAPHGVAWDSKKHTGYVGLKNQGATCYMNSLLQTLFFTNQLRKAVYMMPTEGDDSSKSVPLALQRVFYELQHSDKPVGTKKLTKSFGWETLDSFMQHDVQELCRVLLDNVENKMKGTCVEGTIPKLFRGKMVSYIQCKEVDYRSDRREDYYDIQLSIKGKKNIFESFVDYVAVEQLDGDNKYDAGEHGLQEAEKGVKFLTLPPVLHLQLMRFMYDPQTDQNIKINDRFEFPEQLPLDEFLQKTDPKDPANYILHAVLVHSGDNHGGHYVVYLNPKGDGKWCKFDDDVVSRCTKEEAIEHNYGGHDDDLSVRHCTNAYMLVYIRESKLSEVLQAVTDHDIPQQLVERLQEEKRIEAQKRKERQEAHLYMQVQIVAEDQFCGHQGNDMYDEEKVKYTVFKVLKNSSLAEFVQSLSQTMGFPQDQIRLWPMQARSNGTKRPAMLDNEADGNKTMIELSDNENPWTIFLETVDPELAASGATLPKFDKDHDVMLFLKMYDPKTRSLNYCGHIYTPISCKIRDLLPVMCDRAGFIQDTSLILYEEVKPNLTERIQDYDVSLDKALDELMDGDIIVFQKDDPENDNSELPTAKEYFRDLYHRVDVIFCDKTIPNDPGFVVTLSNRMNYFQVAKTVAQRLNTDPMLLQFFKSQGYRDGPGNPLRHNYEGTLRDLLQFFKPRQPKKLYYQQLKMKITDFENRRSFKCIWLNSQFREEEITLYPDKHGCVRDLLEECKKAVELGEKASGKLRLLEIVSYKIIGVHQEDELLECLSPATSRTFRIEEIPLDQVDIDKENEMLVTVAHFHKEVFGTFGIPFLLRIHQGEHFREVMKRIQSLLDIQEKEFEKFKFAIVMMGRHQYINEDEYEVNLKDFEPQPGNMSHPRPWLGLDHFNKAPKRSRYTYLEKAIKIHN

Molecule | IC50
Cc1cc(Cl)cc(-c2ccnc3cc(CO)sc23)c1OC[C@@H]1CNCCN1 [Example 168, (S)-(7-(5-Chloro-3-methyl-2-(piperazin-2-ylmethoxy)phenyl)thieno[3,2-b]pyridin-2-yl)methanol] | 10000 to 30000 nM
Cc1cc(Cl)cc(-c2ccnc3cc(CN4C(=O)C5CC5C4=O)sc23)c1O[C@H]1CCCNC1 (stereo partly drawn) [Example 244, 3-((7-(5-Chloro-3-methyl-2-(((S)-piperidin-3-yl)oxy)phenyl)thieno[3,2-b]pyridin-2-yl)methyl)-3-azabicyclo[3.1.0]hexane-2,4-dione] | < 1000 nM
OCc1cc2nccc(-c3cc(Cl)cc(Br)c3OCC3CNC3)c2s1 [Example 21, (7-(2-(Azetidin-3-ylmethoxy)-3-bromo-5-chlorophenyl)thieno[3,2-b]pyridin-2-yl)methanol] | 1000 to 10000 nM
Cc1cc(Cl)cc(-c2ccnc3cc(CN4C(=O)C5C(C4=O)C5(C)C)sc23)c1O[C@H]1CC[C@H](N)C1 (stereo partly drawn) [Example 394, 3-[[7-[2-[(1S,3S)-3-aminocyclopentoxy]-5-chloro-3-methyl-phenyl]thieno[3,2-b]pyridin-2-yl]methyl]-6,6-dimethyl-3-azabicyclo[3.1.0]hexane-2,4-dione dihydrochloride] | < 1000 nM
Cc1cc(Cl)cc(-c2ncnc3cc(CN4C(=O)C5C(C4=O)C5(C)C)sc23)c1OC1CC(N)C1 (stereo not drawn) [Example 358, 3-[[4-[2-(3-aminocyclobutoxy)-5-chloro-3-methyl-phenyl]thieno[3,2-d]pyrimidin-6-yl]methyl]-6,6-dimethyl-3-azabicyclo[3.1.0]hexane-2,4-dione; 2,2,2-trifluoroacetic acid] | < 1000 nM
3-[[7-[5-chloro-3-methyl-2-[[(3S,6S)-6-methyl-3-piperidyl]oxy]phenyl]thieno[3,2-b]pyridin-2-yl]methyl]-6,6-dimethyl-3-azabicyclo[3.1.0]hexane-2,4-dione; 2,2,2-tirfluoroacetic acid [Example 304] | < 1000 nM
Cc1cc(Cl)cc(-c2ccnc3cc(CN4C(=O)CCC4=O)sc23)c1O[C@@H]1CN(C(C)C)C[C@@H]1F [Example 323, 1-[[7-[5-chloro-2-[(3R,4S)-4-fluoro-1-isopropyl-pyrrolidin-3-yl]oxy-3-methyl-phenyl]thieno[3,2-b]pyridin-2-yl]methyl]pyrrolidine-2,5-dione] | < 1000 nM

The next lines start with the values.

IC50 | Molecule
1000 to 10000 nM | Cc1cc(Cl)cc(-c2ccnc3ccsc23)c1OC1CCCNCC1 (stereo not drawn) [Example 266, 7-(2-(Azepan-4-yloxy)-5-chloro-3-methylphenyl)thieno[3,2-b]pyridine]
1000 to 10000 nM | CCC(O)c1cc2nccc(-c3cc(Cl)cc(C)c3OC3CC4CC3CN4)c2s1 (stereo not drawn) [Example 197, 1-(7-(2-((2-Azabicyclo[2.2.1]heptan-5-yl)oxy)-5-chloro-3-methylphenyl)thieno[3,2-b]pyridin-2-yl)propan-1-ol]
< 1000 nM | Cc1cc(Cl)cc(-c2ccnc3cc(CN4C(=O)CCCC4=O)sc23)c1OC1CCNCC1 [Example 235, 1-((7-(5-Chloro-3-methyl-2-(piperidin-4-yloxy)phenyl)thieno[3,2-b]pyridin-2-yl)methyl)piperidine-2,6-dione]
10000 to 30000 nM | Cc1cc(Cl)cc(-c2ccnc3cc(CO)sc23)c1O[C@@H]1CCC[C@H]1N [Example 75, (7-(2-(((1R,2R)-2-Aminocyclopentyl)oxy)-5-chloro-3-methylphenyl)thieno[3,2-b]pyridin-2-yl)methanol]
1000 to 10000 nM | CCC(O)c1cc2nccc(-c3cc(Cl)cc(C)c3OC3CCNCC3)c2s1 (stereo not drawn) [Example 261, 1-(7-(5-Chloro-3-methyl-2-(piperidin-4-yIoxy)phenyl)thieno[3,2-b]pyridin-2-yl)propan-1-ol]
1000 to 10000 nM | Cc1cc(Cl)cc(-c2ccnc3cc(CO)sc23)c1O[C@@H]1CNC[C@@H]1O [Example 78, (3S,4R)-4-(4-Chloro-2-(2-(hydroxymethyl)thieno[3,2-b]pyridin-7-yl)-6-methylphenoxy)pyrrolidin-3-ol]
< 1000 nM | CCN1CC[C@@H](Oc2c(C)cc(Cl)cc2-c2ccnc3cc(CN4C(=O)C5CC5C4=O)sc23)[C@@H](C)C1 (stereo partly drawn) [Example 325, 3-[[7-[5-chloro-2-[[(3S,4R)-1-ethyl-3-methyl-4-piperidyl]oxy]-3-methyl-phenyl]thieno[3,2-b]pyridin-2-yl]methyl]-3-azabicyclo[3.1.0]hexane-2,4-dione]
10000 to 30000 nM | Cc1cc(Cl)cc(-c2ccnc3cc(CO)sc23)c1O[C@@H]1CN[C@@H](CO)C1 [Example 76, (7-(5-Chloro-2-(((3S,5R)-5-(hydroxymethyl)pyrrolidin-3-yl)oxy)-3-methylphenyl)thieno[3,2-b]pyridin-2-yl)methanol]
10000 to 30000 nM | Cc1cc(Cl)cc(-c2ccnc3cc(CO)sc23)c1OC[C@H]1CCN1 [Example 16, (R)-(7-(2-(Azetidin-2-ylmethoxy)-5-chloro-3-methylphenyl)thieno[3,2-b]pyridin-2-yl)methanol]
< 1000 nM | Cc1cc(Cl)cc(-c2ccnc3cc(CO)sc23)c1OCC1(C#N)CNC1 [Example 41, 3-((4-Chloro-2-(2-(hydroxymethyl)thieno[3,2-b]pyridin-7-yl)-6-methylphenoxy)methyl)azetidine-3-carbonitrile]
10000 to 30000 nM | 1-(7-(2-((3-Azabicyclo[3.1.0]hexan-6-yl)methoxy)-5-chloro-3-methylphenyl)thieno[3,2-b]pyridin-2-yl)propan-1-ol [Example 88]
1000 to 10000 nM | Cc1cc2nccc(-c3cc(Cl)cc(C)c3OCC3CNC3)c2s1 [Example 37, 7-(2-(Azetidin-3-ylmethoxy)-5-chloro-3-methylphenyl)-2-methylthieno[3,2-b]pyridine]
10000 to 30000 nM | Cc1cc(Cl)cc(-c2ccnc3ccsc23)c1O[C@H]1CCCNC1 [Example 167, (S)-7-(5-Chloro-3-methyl-2-(piperidin-3-yloxy)phenyl)thieno[3,2-b]pyridine]

same assay, conditions: recombinant full-length USP7 62 pM; ubiquitin-rhodamine 100 nM; 30-minute incubation, 1 hour reaction at room temperature; read-out: Potency (USP7 IC50)

IC50 | Molecule
< 1000 nM | Cc1cc(Cl)cc(-c2ccnc3cc(Cn4c(=O)ccn(CC(F)(F)F)c4=O)sc23)c1OC1CCS(=O)(=O)CC1 [Example 680, 3-[[7-[5-chloro-2-(1,1-dioxoothian-4-yl)oxy-3-methyl-phenyl]thieno[3,2-b]pyridin-2-yl]methyl]-1-(2,2,2-trifluoroethyl)pyrimidine-2,4-dione]
< 1000 nM | Cc1cc(Cl)cc(-c2ccnc3cc(Cn4c(=O)ccn(CC(F)(F)F)c4=O)sc23)c1OC1CC2(COCCN2)C1 (stereo not drawn) [Example 697, 3-[[7-[5-chloro-3-methyl-2-(8-oxa-5-azaspiro[3.5]nonan-2-yloxy)phenyl]thieno[3,2-b]pyridin-2-yl]methyl]-1-(2,2,2-trifluoroethyl)pyrimidine-2,4-dione]

same assay, conditions: recombinant full-length USP7 62 pM; ubiquitin-rhodamine 100 nM; 30-minute pre-incubation, 1 hour reaction at room temperature; read-out: Potency (USP7 IC50)

Molecule | IC50
Cc1cc(Cl)cc(-c2ccnc3cc(Cn4c(=O)ccn(CC(F)(F)F)c4=O)sc23)c1OC1(C)CCNC1 (stereo not drawn) [Example 663, 3-[[7-[5-chloro-3-methyl-2-(3-methylpyrrolidin-3-yl)oxy-phenyl]thieno[3,2-b]pyridin-2-yl]methyl]-1-(2,2,2-trifluoroethyl)pyrimidine-2,4-dione] | < 1000 nM
Cc1cc(Cl)cc(-c2ccnc3cc(Cn4c(=O)ccn(CC(F)(F)F)c4=O)sc23)c1OCCN1CCCCC1 [Example 666, 3-[[7-[5-chloro-3-methyl-2-[2-(1-piperidyl)ethoxy]phenyl]thieno[3,2-b]pyridin-2-yl]methyl]-1-(2,2,2-trifluoroethyl)pyrimidine-2,4-dione] | < 1000 nM
Cc1cc(Cl)cc(-c2ccnc3cc(CN4C(=O)CCC4=O)sc23)c1O[C@@H]1CN[C@@H]2COC[C@@H]21 [Example 430, 1-[[7-[2-[[(3S,3aR,6aS)-2,3,3a,4,6,6a-hexahydro-1H-furo[3,4-b]pyrrol-3-yl]oxy]-5-chloro-3-methyl-phenyl]thieno[3,2-b]pyridin-2-yl]methyl]pyrrolidine-2,5-dione] | < 1000 nM
Cc1cc(Cl)cc(-c2ccnc3cc(Cn4c(=O)ccn(CC(F)(F)F)c4=O)sc23)c1OC1CNC[C@@]1(C)F (stereo partly drawn) [Example 406, 3-[[7-[5-chloro-2-[(4R)-4-fluoro-4-methyl-pyrrolidin-3-yl]oxy-3-methyl-phenyl]thieno[3,2-b]pyridin-2-yl]methyl]-1-(2,2,2-trifluoroethyl)pyrimidine-2,4-dione; 2,2,2-trifluoroacetic acid] | < 1000 nM
Cc1cc(Cl)cc(-c2ncnc3cc(Cn4c(=O)ccn(CC(F)(F)F)c4=O)sc23)c1O[C@H]1CC[C@H](N)C1 [Example 543, 3-[[4-[2-[(1S,3S)-3-aminocyclopentoxy]-5-chloro-3-methyl-phenyl]thieno[3,2-d]pyrimidin-6-yl]methyl]-1-(2,2,2-trifluoroethyl)pyrimidine-2,4-dione; 2,2,2-trifluoroacetic acid] | < 1000 nM

Second part, the molecule after the results:

IC50 | Molecule
< 1000 nM | Cc1cc(Cl)cc(-c2ccnc3cc(Cn4c(=O)ccn(C)c4=O)sc23)c1OC1CCCN(CCC(F)(F)F)C1 (stereo not drawn) [Example 507, 3-[[7-[5-chloro-3-methyl-2-[[1-(3,3,3-trifluoropropyl)-3-piperidyl]oxy]phenyl]thieno[3,2-b]pyridin-2-yl]methyl]-1-methyl-pyrimidine-2,4-dione]
< 1000 nM | Cc1cc(Cl)cc(-c2ccnc3cc(Cn4c(=O)ccn(CC(F)(F)F)c4=O)sc23)c1O[C@@H]1CNC[C@@H]1C [Example 625, 3-[[7-[5-chloro-3-methyl-2-[(3S,4S)-4-methylpyrrolidin-3-yl]oxy-phenyl]thieno[3,2-b]pyridin-2-yl]methyl]-1-(2,2,2-trifluoroethyl)pyrimidine-2,4-dione]
< 1000 nM | Cc1cc(Cl)cc(-c2ncnc3cc(Cn4c(=O)ccn(CC(F)(F)F)c4=O)sc23)c1O[C@H]1CCCNC1 [Example 517]
